Results on ten compounds are retold here after patent US5849779A, “Pyrazole derivatives and their pharmaceutical use” (Japan Energy Corporation, priority 1996, dated 1998).

Data set [1] has as its system Human coronary artery smooth muscle cells. The experiment in a line: Inhibiting effect on PDGF-stimulated smooth muscle cell growth (3H-thymidine method). The conditions noted are these: PDGF-BB 20 ng/mL, 16 h. The class given is cell-based. As to the method:
Effect on PDGF-stimulated smooth muscle cell growth was estimated by the following method to verify inhibitory activity of the pyrazole derivative of the present invention against smooth muscle cell growth. (Test method)
Human coronary artery smooth muscle cells seeded on a 96-well plate (2×10^4 cell/well) were incubated in a complete medium consisting of a basal medium (SmGM-2: Iwaki Glass Co., Japan), FBS (5%), EGF (0.5 ng/mL), insulin (0.005 mg/mL), and basic-FGF (2 ng/mL) for 24 h until confluent. The medium was replaced by the basal medium followed by incubation for further 24 h to lead cells to GO stage.
The medium was replaced by a medium consisting of the basal medium and PDGF-BB (20 ng/mL) to induce PDGF-stimulated cell growth, and a DMSO solution of a test sample was added followed by incubation for 16 h. Then, inhibition of cell growth was estimated by a ^3 H-thymidine method as described in Example 22.
Tranilast was used as positive reference.

Another data set has as its system BALB/c 3T3 cells. Briefly: Inhibiting effect on PDGF-stimulated cell growth (3H-thymidine uptake). The class given is cell-based. The conditions noted are these: Mus musculus, BALB/c3T3, PDGF-AA or PDGF-BB 10 ng/mL, 16 h; for inhibition at 3 µM: concentration 3 μM. Here is the method:
Effect on PDGF-stimulated cell growth was estimated by the following method using fibroblasts, growth of which is induced by PDGF in the same manner of smooth muscle cells to verify inhibitory activity of the pyrazole derivative of the present invention against PDGF-stimulated cell growth.
BALB/c 3T3 cells seeded on a 96-well plate (3-5×10^3 cell/well) were incubated in a high glucose Dulbecco's modified Eagle's medium (DME medium) containing 10% fetal bovine sera (FBS) for 2-3 days until confluent. The medium was replaced by high glucose DME medium containing 0.5% platelet poor plasma (PPP) followed by incubation for further 24 h.
The medium was replaced by high glucose DME medium containing PDGF-AA or PDGF-BB (10 ng/mL) to induce PDGF-stimulated cell growth, and a DMSO solution of a test sample was added followed by incubation for 16 h. Then, ^3 H-thymidine (1 mCi/ml) was 20-fold diluted by Ca^2+ and Mg^2+ free phosphate-bufferized saline, and 0.02 mL of the resulted solution was added followed by incubation for further 4 h. Final concentration of DMSO was not more than 0.25%.
After ^3 H-thymidine in the medium was washed out, cells were treated with trypsin/EDTA and collected using a cell-harvester. Amount of ^3 H-thymidine taken in the cells was measured by a liquid scintillation counter. […] Growth inhibition was estimated by difference of the amount of ^3 H-thymidine taken between the test incubation and the reference incubation.

A further data set concerns hepatic function. The note with it: clinical use; cited from earlier work.
The subject of data set [2] is smooth muscle cell. The conditions noted are these: Atherosclerosis, 107, 179-185 (1994); cited from earlier work.
Another data set has as its system re-narrowing. The note with it: Rinsho Iyaku, 12, 65-85 (1996); cited from earlier work.
Data set [3] relates to smooth muscle cell. The note with it: as reported in literature; cited from earlier work.

SMILES strings stand for the structures.

For orientation: IC50 means the point on the concentration scale where inhibition reaches its midpoint. Low values mean greater potency, high ones weaker potency. Usually inhibition stands for the change of the read-out against control, counted positive when it falls. Low values mean a response near the control, high ones a response far below the control. In the case of `CCCNC(=O)Nc1nn(Cc2ccccc2)cc1C(=O)OCC` [Example 1, N-propyl-N'-(1-benzyl-4-ethoxycarbonylpyrazol-3-yl)urea], in data set [1], it took 2300 nM to reach half-maximal inhibition (IC50). In the data set with BALB/c 3T3 cells, this compound came in with an inhibition at 3 µM of 84.5%.
In data set [1], `CCCCn1cc(C(=O)OCC)c(NC(=O)Nc2ccccc2)n1` [Example 2, N-phenyl-N'-(1-butyl-4-ethoxycarbonylpyrazol-3-yl)urea] returned a 50% inhibitory concentration (IC50) of 3100 nM. In the data set on BALB/c 3T3 cells, this compound came in with an inhibition at 3 µM of 81.9%.
For `CCCCn1cc(C(=O)OCC)c(NC(=S)Nc2ccccc2)n1` [Example 3, N-phenyl-N'-(1-butyl-4-ethoxycarbonylpyrazol-3-yl)thiourea], in that order: 1500 nM and 89.5%.
Regarding `CCOC(=O)c1cnn(-c2ccccc2)c1NC(=O)Nc1ccccc1` [Example 6, N-phenyl-N'-(4-ethoxycarbonyl-1-phenylpyrazol-5-yl)urea], 3 µM produced 49.9% inhibition with BALB/c 3T3 cells.
In the case of `CCCNC(=O)Nc1c(C(=O)OCC)cnn1-c1ccccc1` [Example 7, N-propyl-N'-(4-ethoxycarbonyl-1-phenylpyrazol-5-yl)urea], 3 µM produced 36.4% inhibition in the data set with BALB/c 3T3 cells.
The compound `CCOC(=O)c1cn(Cc2ccccc2)nc1NC(=O)NC(C)C` [Example 8, N-isopropyl-N'-(1-benzyl-4-ethoxycarbonylpyrazol-3-yl)urea] had an IC50 in data set [1] of 1300 nM.
`CCCN(CCC)C(=O)Nc1nn(Cc2ccccc2)cc1C(=O)OCC` [Example 15, N, N-dipropyl-N'-(1-benzyl-4-ethoxycarbonylpyrazol-3-yl)urea] displayed an IC50 in data set [1] of 2200 nM.
In turn, `CCOC(=O)c1cn(Cc2ccccc2)nc1NC(=O)N(c1ccccc1)c1ccccc1` [Example 16, N, N-diphenyl-N'-(1-benzyl-4-ethoxycarbonylpyrazol-3-yl)urea] had an IC50 in data set [1] of 1100 nM.
The same measure, in the same setting: the same measure for `CCOC(=O)c1cn(Cc2ccccc2)nc1N(Cc1ccccc1)C(=O)Nc1ccccc1` [Example 18, N-phenyl-N'-benzyl-N'-(1-benzyl-4-ethoxycarbonylpyrazol-3-yl)urea]: 3000 nM.
`COc1ccc(/C=C/C(=O)Nc2ccccc2C(=O)O)cc1OC` [tranilast, N-(3,4-dimethoxycinnamoyl) anthranilic acid, reference compound] came in with an IC50 in data set [1] of 5000 nM. Also, the “side effects on hepatic function” value in the data set with hepatic function is given as “often causes side effects on hepatic function”. Besides, the “inhibition of growth of smooth muscle cell” value in the data set on smooth muscle cell [2] is given as “inhibit growth of smooth muscle cell”. In the data set with re-narrowing, the “prevention of clinical re-narrowing after percutaneous transluminal angioplasty” value was “prevent clinical re-narrowing after percutaneous transluminal angioplasty”. Also, the inhibition at 10 µM in the data set on BALB/c 3T3 cells (concentration 10 μM) worked out at 19.2%. For the same compound, the inhibition at 30 µM with BALB/c 3T3 cells (concentration 30 μM) was found to be 57.1%. This compound returned an inhibition at 100 µM in the data set on BALB/c 3T3 cells (concentration 100 μM) of 92.5%. Moreover, the “inhibition of PDGF-stimulated smooth muscle cell growth” value in the data set with smooth muscle cell [3] is “reported to inhibit PDGF-stimulated smooth muscle cell growth”.
